Test [1] concerns the target T1, Neuronal acetylcholine receptor; alpha4/beta2 (Rattus norvegicus, UniProt P09483+P12390). Briefly: In vitro binding affinity for Nicotinic acetylcholine receptor alpha4-beta2 in rat cerebral cortical membrane using [3H]cytisine as radioligand. The class given is cell membranes.
The target in test [2] is T1, Neuronal acetylcholine receptor; alpha4/beta2. The experiment in a line: In vitro binding affinity for Nicotinic acetylcholine receptor alpha4-beta2 (alpha4 beta-2 subtype of nAChRs) in rat cerebral cortical membrane using [3H]-cytisine as radioligand. It is filed as cell membranes.

T1 sequence (P09483 whole entry): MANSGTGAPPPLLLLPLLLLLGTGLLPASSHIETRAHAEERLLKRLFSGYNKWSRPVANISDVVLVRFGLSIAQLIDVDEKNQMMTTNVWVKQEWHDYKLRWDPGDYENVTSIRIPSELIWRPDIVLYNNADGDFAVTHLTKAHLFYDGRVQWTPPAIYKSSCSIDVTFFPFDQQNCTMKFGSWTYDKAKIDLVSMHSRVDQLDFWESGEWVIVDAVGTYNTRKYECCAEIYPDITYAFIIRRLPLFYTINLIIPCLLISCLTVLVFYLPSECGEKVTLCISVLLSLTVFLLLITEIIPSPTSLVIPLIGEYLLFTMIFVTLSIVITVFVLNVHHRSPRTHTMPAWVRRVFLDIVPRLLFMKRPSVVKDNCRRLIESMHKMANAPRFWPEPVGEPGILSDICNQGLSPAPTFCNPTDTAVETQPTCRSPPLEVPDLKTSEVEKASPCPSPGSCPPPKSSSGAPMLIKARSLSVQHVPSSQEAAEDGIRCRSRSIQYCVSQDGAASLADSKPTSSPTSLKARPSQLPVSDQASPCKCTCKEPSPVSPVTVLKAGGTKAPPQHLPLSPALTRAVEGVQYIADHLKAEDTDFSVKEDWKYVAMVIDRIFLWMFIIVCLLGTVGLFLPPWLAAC
T1 sequence (P12390 whole entry): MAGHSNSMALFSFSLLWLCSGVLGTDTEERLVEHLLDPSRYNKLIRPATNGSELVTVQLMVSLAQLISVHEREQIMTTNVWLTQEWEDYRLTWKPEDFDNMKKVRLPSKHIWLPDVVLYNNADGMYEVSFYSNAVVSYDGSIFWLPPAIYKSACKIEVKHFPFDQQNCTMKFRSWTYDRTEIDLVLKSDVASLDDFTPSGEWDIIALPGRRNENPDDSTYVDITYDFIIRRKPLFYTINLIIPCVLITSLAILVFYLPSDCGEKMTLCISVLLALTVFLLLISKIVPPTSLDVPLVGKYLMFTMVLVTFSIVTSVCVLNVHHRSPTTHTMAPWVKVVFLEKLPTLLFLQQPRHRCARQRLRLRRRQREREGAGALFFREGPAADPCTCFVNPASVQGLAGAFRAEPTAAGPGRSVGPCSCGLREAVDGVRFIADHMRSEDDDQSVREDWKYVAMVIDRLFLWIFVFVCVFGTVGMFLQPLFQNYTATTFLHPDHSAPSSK

A word on the IC50: it is the concentration at which inhibition is half-maximal. `c1cncc(OC2CCNC2)c1` (configuration not stated): the IC50 in test [1] (read-out: IC50) was 100 nM.
On the same count and under the same terms, for `c1ccc(Sc2cncc(N3CCCNCC3)c2)cc1` the value was 4 nM.
In test [1], `c1cncc(OC[C@@H]2CCN2)c1` yielded an IC50 of 1.5 nM.
Consider `C1=C(c2cccnc2)CC2CCC1N2` (configuration not stated), for which, in test [1] (read-out: IC50), the IC50 was 6.7 nM.
Same read-out and setting: for `c1ccc2nc(-c3cncc(N4CCCNCC4)c3)ccc2c1` the value was 6.6 nM; for `c1cncc(-c2cncc(N3CCCNCC3)c2)c1`, 2.8 nM; for `COc1cc(N2CCCNCC2)cnc1OC`, 170 nM.
Same read-out and setting: the same measure for `NC(=O)c1cncc(N2CCCNCC2)c1`: 20 nM.
Take `COc1cc(N2CCCNCC2)cnc1Cl`: the IC50 in test [2] was found to be 0.68 nM.
On to `COc1ccc(N2CCCNCC2)cn1`, for which the IC50 in test [1] (read-out: IC50) stood at 170 nM.
For the molecule `CCSc1ccc(N2CCCNCC2)cn1`, in test [1] (read-out: IC50), the IC50 was 170 nM.
In turn, `C=COc1cncc(N2CCCNCC2)c1` displayed an IC50 in test [2] of 5 nM.
For the molecule `Nc1cccc(-c2cncc(N3CCCNCC3)c2)c1`, in test [1] (read-out: IC50), the IC50 is 4 nM.
Same read-out and setting: for `COc1cncc(N2CCCNCC2)c1` the value was 1.9 nM.
Still for that read-out and setting: the same measure for `Oc1cncc(N2CCCNCC2)c1`: 2.4 nM.
The same measure, in the same setting: for `COCCOc1cncc(N2CCCNCC2)c1` the value was 2.4 nM.
Regarding `CCOc1cc(N2CCCNCC2)cnc1Br`, the IC50 in test [2] amounted to 0.87 nM.
Turning to `C1=CC(CSc2cncc(N3CCCNCC3)c2)C=C1`, the IC50 in test [1] (read-out: IC50) was found to be 8 nM.
Still for that read-out and setting: the same measure for `OCCOc1cncc(N2CCCNCC2)c1`: 1.8 nM; for `CC(C)COc1cncc(N2CCCNCC2)c1`: 2.2 nM.
Take `Clc1cncc(OC2CCNC2)c1` (configuration not stated): the IC50 in test [1] (read-out: IC50) is 220 nM.
Same read-out and setting: the same measure for `c1cncc(OC2CCCNC2)c1` (configuration not stated): 190 nM.

Source of the values: ChEMBL document CHEMBL1133731, “Novel potent ligands for the central nicotinic acetylcholine receptor: synthesis, receptor binding, and 3D-QSAR analysis” (J Med Chem, 2000).
